Assays:
A549 = experiment: Antiproliferative activity against human A549 cells after 48 hrs by CCK8 assay; format: functional, cell-based; conditions: A549, 48 h
L929 = experiment: Antiproliferative activity against mouse L929 cells after 48 hrs by CCK8 assay; format: cell-based; conditions: L929, 48 h
[1] = Antiproliferative activity against human SMMC7721 cells after 48 hrs by CCK8 assay; format: functional, cell-based; conditions: SMMC-7721, 48 h
HeLa = experiment: Antiproliferative activity against human HeLa cells after 48 hrs by CCK8 assay; format: functional, cell-based

SMILES	IC50 (A549) [µM]	IC50 (L929) [µM]	IC50 [1] [µM]	IC50 (HeLa) [µM]
O=c1c2ccccc2[se]n1-c1nc(SCc2ccccc2)n[nH]1	> 50	> 50	32	> 50
Cc1ccccc1CSc1n[nH]c(-n2[se]c3ccccc3c2=O)n1	9.72	15.6	36.2	6.13
CC(C)Sc1n[nH]c(-n2[se]c3ccccc3c2=O)n1	36.6	37.1	6.01	34.6
CCCCCSc1n[nH]c(-n2[se]c3ccccc3c2=O)n1	21.1	33.5	31.4	30.3
O=c1c2ccccc2[se]n1-c1nc(SCc2ccc(F)cc2)n[nH]1	36.4	> 50	46.1	> 50
CCCSc1n[nH]c(-n2[se]c3ccccc3c2=O)n1	45.5	31.8	6.02	30.4
O=c1[nH]cc(F)c(=O)[nH]1 [FLUOROURACIL]		2.98		17.2
Cc1ccc(CSc2n[nH]c(-n3[se]c4ccccc4c3=O)n2)cc1	> 50	> 50	> 50	34.8
CCSc1n[nH]c(-n2[se]c3ccccc3c2=O)n1	39.6	35.2	10	14.1
CCCCCCSc1n[nH]c(-n2[se]c3ccccc3c2=O)n1	20.3	39.3	22.4	35.9
O=c1c2ccccc2[se]n1CCn1[se]c2ccccc2c1=O [ETHASELEN]	3.26	> 50	10.7	15.9
O=c1c2ccccc2[se]n1-c1nc(SCc2ccc(Cl)cc2)n[nH]1	42.1	39.5	33.9	40.9
Cc1cccc(CSc2n[nH]c(-n3[se]c4ccccc4c3=O)n2)c1	12.4	> 50	9.04	42.6
O=c1c2ccccc2[se]n1-c1nc(SCc2ccc([N+](=O)[O-])cc2)n[nH]1	9.14	7.43	8.91	3.94
CCCCSc1n[nH]c(-n2[se]c3ccccc3c2=O)n1	12.5	30.4	16.8	32.9
CC(C)CSc1n[nH]c(-n2[se]c3ccccc3c2=O)n1	37.8	33.4	35	34.9

Source: ChEMBL document CHEMBL3758108, “Synthesis and antiproliferative evaluation of novel 1,2,4-triazole derivatives incorporating benzisoselenazolone scaffold” (Bioorg Med Chem Lett, 2016)
